{"source": "patent US12037339B2", "about": "“Substituted imidazoles as GLP-1 receptor agonists” (Eccogene Inc., priority 2020, dated 2024)", "biological_target": "(Homo sapiens, UniProt P43220)", "sequence (P43220 24-463)": "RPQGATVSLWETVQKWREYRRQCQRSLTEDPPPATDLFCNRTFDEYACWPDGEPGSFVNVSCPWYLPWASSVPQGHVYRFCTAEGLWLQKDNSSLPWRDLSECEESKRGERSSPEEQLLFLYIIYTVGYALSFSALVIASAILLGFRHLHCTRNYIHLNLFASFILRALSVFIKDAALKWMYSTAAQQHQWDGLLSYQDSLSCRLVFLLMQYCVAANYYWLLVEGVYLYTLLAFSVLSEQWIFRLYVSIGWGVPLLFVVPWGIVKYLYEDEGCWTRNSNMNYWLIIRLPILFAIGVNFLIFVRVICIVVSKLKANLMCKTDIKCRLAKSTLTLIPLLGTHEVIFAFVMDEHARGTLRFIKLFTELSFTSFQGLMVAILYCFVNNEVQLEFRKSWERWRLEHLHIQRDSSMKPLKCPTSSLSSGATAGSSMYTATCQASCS", "assay": "h-GLP-1 activity assay (cAMP HTRF, HEK293 cells with stable expression of human GLP-1)", "format": "cell-based", "conditions": "relative EC50, 10 nM human GLP-1 set as 100% response, 30 min at 37° C.", "description": "Human GLP-1 agonizing activity was detected in HEK293 cells with stable expression of human GLP-1 by Cisbio cAMP Gs dynamic kit (Catalog #62AM4PEC) according to manufacturer's protocol. Briefly, cells were collected and resuspended in assay buffer containing 0.1% BSA and 0.5 mM of IBMX at concentration to 2.5×10^5 cells/mL. Two μL 5× compound solution and 8 μL cell suspension were added to each well of low-volume 384 white assay plate. After 30 min incubation at 37° C., 5 μL cAMP-d2 working solution and 5 μL anti-cAMP antibody-cryptate were added to each well, and incubate at room temperature for 1 hr. Series dilution of cAMP was used as standard. Human GLP-1 (7-37) was used as positive control and 10 nM human GLP-1 was set as 100% response. HTRF signals were read at 665 and 615 nm with EnVision plate reader and calculated cAMP concentration by interpolation to the standard curve. The EC50 value of the tested compounds was calculated by fitting the dose response curve using a 4-parameter non-linear regression routine and relative EC50 was presented in Table 29."}
{"smiles": "Cc1cc(-n2nc3c(c2-n2ccn(-c4ccc5c(cnn5C)c4F)c2=O)[C@H](C)N(C(=O)c2cc4cc(C5CCOC(C)(C)C5)ccc4n2C2(c4nc(O)ns4)CC2)CC3)cc(C)c1F", "note": "(mixture of isomers) [Compound 48, 1-((4S)-5-(5-(2,2-dimethyltetrahydro-2H-pyran-4-yl)-1-(1-(3-hydroxy-1,2,4-thiadiazol-5-yl)cyclopropyl)-1H-indole-2-carbonyl)-2-(4-fluoro-3,5-dimethylphenyl)-4-methyl-4,5,6,7-tetrahydro-2H-pyrazolo[4,3-c]pyridin-3-yl)-3-(4-fluoro-1-methyl-1H-indazol-5-yl)-1,3-dihydro-2H-imidazol-2-one]", "values": [{"measurement": "EC50", "value": "< 20", "unit": "nM"}]}
{"smiles": "Cc1cc(-n2nc3c(c2-n2ccn(-c4ccc5c(cnn5C)c4F)c2=O)[C@H](C)N(C(=O)c2cc4cc(C5CCOC(C)(C)C5)ccc4n2-c2ccccc2C(=O)O)CC3)cc(C)c1F", "note": "(mixture of isomers) [Compound 54, 2-(5-(2,2-dimethyltetrahydro-2H-pyran-4-yl)-2-((S)-3-(3-(4-fluoro-1-methyl-1H-indazol-5-yl)-2-oxo-2,3-dihydro-1H-imidazol-1-yl)-2-(4-fluoro-3,5-dimethylphenyl)-4-methyl-4,5,6,7-tetrahydro-2H-pyrazolo[4,3-c]pyridine-5-carbonyl)-1H-indol-1-yl)benzoic acid]", "values": [{"measurement": "EC50", "value": "< 20", "unit": "nM"}]}
{"smiles": "Cc1cc(-n2nc3c(c2-n2ccn(-c4ccc5c(cnn5C)c4F)c2=O)[C@H](C)N(C(=O)c2cc4cc(C5CCOC(C)(C)C5)ccc4n2C2(CNS(C)(=O)=O)CC2)CC3)cc(C)c1F", "note": "(mixture of isomers) [Compound 64, N-((1-(5-(2,2-dimethyltetrahydro-2H-pyran-4-yl)-2-((S)-3-(3-(4-fluoro-1-methyl-1H-indazol-5-yl)-2-oxo-2,3-dihydro-1H-imidazol-1-yl)-2-(4-fluoro-3,5-dimethylphenyl)-4-methyl-4,5,6,7-tetrahydro-2H-pyrazolo[4,3-c]pyridine-5-carbonyl)-1H-indol-1-yl)cyclopropyl)methyl)methanesulfonamide]", "values": [{"measurement": "EC50", "value": "> 100", "unit": "nM"}]}
{"smiles": "C[C@H]1c2c(nn(-c3ccc(F)c(C4CC4)c3)c2-n2ccn(-c3ccc4c(cnn4C)c3F)c2=O)CCN1C(=O)c1nn2cc(C3CCOC(C)(C)C3)cnc2c1C1(c2noc(=O)[nH]2)CC1", "note": "(mixture of isomers) [Compound 103, 3-(1-(2-((S)-2-(3-cyclopropyl-4-fluorophenyl)-3-(3-(4-fluoro-1-methyl-1H-indazol-5-yl)-2-oxo-2,3-dihydro-1H-imidazol-1-yl)-4-methyl-4,5,6,7-tetrahydro-2H-pyrazolo[4,3-c]pyridine-5-carbonyl)-6-(2,2-dimethyltetrahydro-2H-pyran-4-yl)pyrazolo[1,5-a]pyrimidin-3-yl)cyclopropyl)-1,2,4-oxadiazol-5(4H)-one]", "values": [{"measurement": "EC50", "value": "< 20", "unit": "nM"}]}
{"smiles": "Cc1cc(-n2nc3c(c2-n2ccn(-c4ccc5c(cnn5C)c4F)c2=O)[C@H](C)N(C(=O)c2cn4cc([C@@H]5CCOC(C)(C)C5)ccc4c2[C@@]2(c4noc(=O)[nH]4)C[C@@H]2C)CC3)cc(C)c1F", "note": "(single isomer, unassigned) [Compound 3]", "values": [{"measurement": "EC50", "value": "< 20", "unit": "nM"}]}
{"smiles": "Cc1cc(-n2nc3c(c2-n2ccn(-c4ccc5c(cnn5C)c4F)c2=O)[C@H](C)N(C(=O)c2cn4cc([C@H]5CCOC(C)(C)C5)ccc4c2[C@@]2(c4noc(=O)[nH]4)C[C@@H]2C)CC3)cc(C)c1F", "note": "(single isomer, unassigned) [Compound 4]", "values": [{"measurement": "EC50", "value": "20 to 100", "unit": "nM"}]}
{"smiles": "Cc1cc(-n2nc3c(c2-n2ccn(-c4ccc5c(cnn5C)c4F)c2=O)[C@H](C)N(C(=O)c2cn4cc([C@H]5CCOC(C)(C)C5)ccc4c2[C@]2(c4noc(=O)[nH]4)C[C@@H]2C)CC3)cc(C)c1F", "note": "(single isomer, unassigned) [Compound 5]", "values": [{"measurement": "EC50", "value": "< 20", "unit": "nM"}]}
{"smiles": "Cc1cc(-n2nc3c(c2-n2ccn(-c4ccc5c(cnn5C)c4F)c2=O)[C@H](C)N(C(=O)c2cn4cc([C@@H]5CCOC(C)(C)C5)ccc4c2[C@]2(c4noc(=O)[nH]4)C[C@@H]2C)CC3)cc(C)c1F", "note": "(single isomer, unassigned) [Compound 6]", "values": [{"measurement": "EC50", "value": "20 to 100", "unit": "nM"}]}
{"smiles": "Cc1cc(-c2ccc3c(c2)cc(C(=O)N2CCn4nc(-c5ccc(F)cc5)c(-n5ccn(-c6ccc7c(cnn7C)c6F)c5=O)c4[C@@H]2C)n3C2(c3noc(=O)[nH]3)CC2)ccn1", "note": "(single isomer, unassigned) [Compound 7]", "values": [{"measurement": "EC50", "value": "< 20", "unit": "nM"}]}
{"smiles": "C[C@H]1c2c(nn(-c3ccc(C(F)(F)F)cc3)c2-n2ccn(-c3ccc4c(cnn4C)c3F)c2=O)CCN1C(=O)c1cn2cc([C@@H]3CCOC(C)(C)C3)ccc2c1C1(c2noc(=O)[nH]2)CC1", "note": "(single isomer, unassigned) [Compound 8]", "values": [{"measurement": "EC50", "value": "< 20", "unit": "nM"}]}
{"smiles": "Cc1cc(-n2nc3c(c2-n2ccn(-c4ccc5c(cnn5C)c4F)c2=O)[C@H](C)N(C(=O)c2cc4cc([C@H]5CCOC(C)(C)C5)ccn4c2C2(c4noc(=O)[nH]4)CC2)CC3)cc(C)c1F", "note": "(single isomer, unassigned) [Compound 9]", "values": [{"measurement": "EC50", "value": "20 to 100", "unit": "nM"}]}
{"smiles": "C[C@H]1c2c(nn(-c3ccc(F)cc3)c2-n2ccn(-c3ccc4c(cnn4C)c3F)c2=O)CCN1C(=O)c1cn2cc([C@@H]3CCOC(C)(C)C3)ccc2c1C1(c2noc(=O)[nH]2)CC1", "note": "(single isomer, unassigned) [Compound 11]", "values": [{"measurement": "EC50", "value": "< 20", "unit": "nM"}]}
{"smiles": "C[C@H]1c2c(nn(-c3ccc(F)c(Cl)c3)c2-n2ccn(-c3ccc4c(cnn4C)c3F)c2=O)CCN1C(=O)c1cn2cc([C@@H]3CCOC(C)(C)C3)ccc2c1C1(c2noc(=O)[nH]2)CC1", "note": "(single isomer, unassigned) [Compound 12]", "values": [{"measurement": "EC50", "value": "< 20", "unit": "nM"}]}
{"smiles": "Cc1cc(-n2nc3c(c2-n2ccn(-c4ccc5c(cnn5C)c4F)c2=O)[C@H](C)N(C(=O)c2cn4cc([C@@H]5CCOC(C)(C)C5)ccc4c2C2(c4noc(=O)[nH]4)CC2)CC3)ccc1F", "note": "(single isomer, unassigned) [Compound 13]", "values": [{"measurement": "EC50", "value": "< 20", "unit": "nM"}]}
{"smiles": "C[C@H]1c2c(-n3ccn(-c4ccc5c(cnn5C)c4F)c3=O)c(-c3ccc(F)cc3)nn2CCN1C(=O)c1cn2cc([C@@H]3CCOC(C)(C)C3)ccc2c1C1(c2noc(=O)[nH]2)CC1", "note": "(single isomer, unassigned) [Compound 14]", "values": [{"measurement": "EC50", "value": "< 20", "unit": "nM"}]}
{"smiles": "Cc1cc(-n2nc3c(c2-n2ccn(-c4ccn5cncc5c4)c2=O)[C@H](C)N(C(=O)c2cn4cc([C@H]5CCOC(C)(C)C5)ccc4c2C2(c4noc(=O)[nH]4)CC2)CC3)cc(C)c1F", "note": "(single isomer, unassigned) [Compound 16]", "values": [{"measurement": "EC50", "value": "20 to 100", "unit": "nM"}]}
{"smiles": "Cc1cc(-n2nc3c(c2-n2ccn(-c4ccn5c(C)ncc5c4)c2=O)[C@H](C)N(C(=O)c2cn4cc([C@@H]5CCOC(C)(C)C5)ccc4c2C2(c4noc(=O)[nH]4)CC2)CC3)cc(C)c1F", "note": "(single isomer, unassigned) [Compound 17]", "values": [{"measurement": "EC50", "value": "< 20", "unit": "nM"}]}
{"smiles": "Cc1cc(-n2nc3c(c2-n2ccn(-c4ccn5c(C)ncc5c4)c2=O)[C@H](C)N(C(=O)c2cn4cc([C@H]5CCOC(C)(C)C5)ccc4c2C2(c4noc(=O)[nH]4)CC2)CC3)cc(C)c1F", "note": "(single isomer, unassigned) [Compound 18]", "values": [{"measurement": "EC50", "value": "< 20", "unit": "nM"}]}
{"smiles": "Cc1cc(-n2nc3c(c2-n2ccn(-c4ccc5c(cnn5C)c4F)c2=O)[C@H](C)N(C(=O)c2cn4cc([C@H]5CCOC(C)(C)C5)ccc4c2C2(c4noc(=O)[nH]4)CC2)CC3)cc(C)c1F", "note": "(single isomer, unassigned) [Compound 20]", "values": [{"measurement": "EC50", "value": "20 to 100", "unit": "nM"}]}
{"smiles": "Cc1cc(-n2nc3c(c2-n2ccn(-c4ccc5c(cnn5C)c4F)c2=O)[C@H](C)N(C(=O)c2cn4cc([C@@H]5CCOC(C)(C)C5)ccc4c2Cc2noc(=O)[nH]2)CC3)cc(C)c1F", "note": "(single isomer, unassigned) [Compound 21]", "values": [{"measurement": "EC50", "value": "< 20", "unit": "nM"}]}
{"smiles": "Cc1cc(-n2nc3c(c2-n2ccn(-c4ccc5c(cnn5C)c4F)c2=O)[C@H](C)N(C(=O)c2cn4cc([C@H]5CCOC(C)(C)C5)ccc4c2Cc2noc(=O)[nH]2)CC3)cc(C)c1F", "note": "(single isomer, unassigned) [Compound 22]", "values": [{"measurement": "EC50", "value": "20 to 100", "unit": "nM"}]}
{"smiles": "Cc1cc(-c2nn3c(c2-n2ccn(-c4ccc5c(cnn5C)c4F)c2=O)[C@@H](C)N(C(=O)c2cc4cc([C@@H]5CCOC(C)(C)C5)ccc4n2C2(c4noc(=O)[nH]4)CC2)CC3)cc(C)c1F", "note": "(single isomer, unassigned) [Compound 24]", "values": [{"measurement": "EC50", "value": "< 20", "unit": "nM"}]}
{"smiles": "Cc1cc(-c2nn3c(c2-n2ccn(-c4ccc5c(cnn5C)c4F)c2=O)[C@H](C)N(C(=O)c2cc4cc([C@@H]5CCOC(C)(C)C5)ccc4n2C2(c4noc(=O)[nH]4)CC2)CC3)cc(C)c1F", "note": "(single isomer, unassigned) [Compound 25]", "values": [{"measurement": "EC50", "value": "> 100", "unit": "nM"}]}
{"smiles": "Cc1cc(-c2nn3c(c2-n2ccn(-c4ccc5c(cnn5C)c4F)c2=O)[C@H](C)N(C(=O)c2cc4cc([C@@H]5CCOC(C)(C)C5)ccc4n2C2(c4noc(=O)[nH]4)CC2)CC3)ccc1F", "note": "(single isomer, unassigned) [Compound 26]", "values": [{"measurement": "EC50", "value": "< 20", "unit": "nM"}]}
{"smiles": "Cc1cc(-c2nn3c(c2-n2ccn(-c4ccc5c(cnn5C)c4F)c2=O)[C@@H](C)N(C(=O)c2cc4cc([C@@H]5CCOC(C)(C)C5)ccc4n2C2(c4noc(=O)[nH]4)CC2)CC3)ccc1F", "note": "(single isomer, unassigned) [Compound 27]", "values": [{"measurement": "EC50", "value": "> 100", "unit": "nM"}]}
{"smiles": "COc1ccc(-c2nn3c(c2-n2ccn(-c4ccc5c(cnn5C)c4F)c2=O)C(C)N(C(=O)c2cc4cc([C@@H]5CCOC(C)(C)C5)ccc4n2C2(c4noc(=O)[nH]4)CC2)CC3)cc1", "note": "(single isomer, unassigned) [Compound 28]", "values": [{"measurement": "EC50", "value": "20 to 100", "unit": "nM"}]}
{"smiles": "COCC12CCC(n3ccn(-c4c(-c5ccc(F)cc5)nn5c4[C@H](C)N(C(=O)c4cc6cc([C@@H]7CCOC(C)(C)C7)ccc6n4C4(c6noc(=O)[nH]6)CC4)CC5)c3=O)(CC1)CC2", "note": "(single isomer, unassigned) [Compound 29]", "values": [{"measurement": "EC50", "value": "20 to 100", "unit": "nM"}]}
{"smiles": "C[C@H]1c2c(-n3ccn(-c4ccc5c(cnn5C)c4F)c3=O)c(-c3ccc(F)cc3)nn2CCN1C(=O)c1cc2cc([C@H]3CCOC(C)(C)C3)ccc2n1C1(c2noc(=O)[nH]2)CC1", "note": "(single isomer, unassigned) [Compound 31]", "values": [{"measurement": "EC50", "value": "> 100", "unit": "nM"}]}
